This passage reports EC50 results from ChEMBL document CHEMBL4431378, “Small Molecule Antagonists of the Nuclear Androgen Receptor for the Treatment of Castration-Resistant Prostate Cancer” (ACS Med Chem Lett, 2016).

A value given as a limit tells only on which side of the number the result lay.

The target of the experiment is T1, Androgen receptor (Homo sapiens, UniProt P10275).
T1 sequence (P10275 whole entry): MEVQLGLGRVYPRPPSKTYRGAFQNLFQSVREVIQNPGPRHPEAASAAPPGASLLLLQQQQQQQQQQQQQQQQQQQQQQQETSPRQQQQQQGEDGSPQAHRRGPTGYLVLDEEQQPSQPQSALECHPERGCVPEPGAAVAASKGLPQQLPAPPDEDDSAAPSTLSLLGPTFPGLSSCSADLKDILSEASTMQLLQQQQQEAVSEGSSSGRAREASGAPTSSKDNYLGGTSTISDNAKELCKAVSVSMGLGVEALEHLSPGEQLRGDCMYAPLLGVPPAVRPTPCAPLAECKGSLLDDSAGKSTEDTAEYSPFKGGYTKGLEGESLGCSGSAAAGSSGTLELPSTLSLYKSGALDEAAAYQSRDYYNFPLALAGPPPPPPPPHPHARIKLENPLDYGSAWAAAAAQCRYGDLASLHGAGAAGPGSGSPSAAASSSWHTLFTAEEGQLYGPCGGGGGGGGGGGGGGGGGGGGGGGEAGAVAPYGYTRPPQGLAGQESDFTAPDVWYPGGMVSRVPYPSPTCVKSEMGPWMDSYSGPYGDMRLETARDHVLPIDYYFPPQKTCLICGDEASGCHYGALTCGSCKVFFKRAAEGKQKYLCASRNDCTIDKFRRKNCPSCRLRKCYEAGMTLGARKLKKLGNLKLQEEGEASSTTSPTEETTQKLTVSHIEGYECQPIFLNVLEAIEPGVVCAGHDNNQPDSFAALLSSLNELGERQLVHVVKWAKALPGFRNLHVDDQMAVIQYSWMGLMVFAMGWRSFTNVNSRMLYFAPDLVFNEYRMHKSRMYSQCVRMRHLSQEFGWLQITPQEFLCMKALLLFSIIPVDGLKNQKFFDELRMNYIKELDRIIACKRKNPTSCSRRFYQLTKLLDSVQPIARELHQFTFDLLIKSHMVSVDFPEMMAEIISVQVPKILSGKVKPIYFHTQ
The experiment in a line: Antagonist activity at androgen receptor in human C4-2-PSA-rl cells incubated for 24 hrs in presence of androgen R1881 by dual-glo luciferase reporter gene assay. The class given is cell-based. Background: Reporter assays use an easily measured gene product as a stand-in for the process of interest.

Regarding `Cc1noc(C)c1CSCC(=O)N1CCN(c2ccccc2)CC1`, the EC50 was > 25 µM.
Turning to `Cc1ccccc1N1CCN(C(=O)CN(C)Cc2ccccc2)CC1`, the EC50 is > 25 µM.
As for `Cc1ccccc1N1CCN(C(=O)C[S+]([O-])Cc2c(C)noc2C)CC1` (stereo not given), the EC50 is > 25 µM.
For `Cc1ccccc1N1CCN(C(=O)CSc2ccccc2)CC1`, the EC50 is > 25 µM.
On to `Cc1ccc(N2CCN(C(=O)CSCc3c(C)noc3C)CC2)cc1`, for which the EC50 is > 25 µM.
In the case of `Cc1ccccc1N1CCN(C(=O)COCc2c(C)noc2C)CC1`, the EC50 is > 25 µM.
In the case of `Cc1cccc(N2CCN(C(=O)CSCc3c(C)noc3C)CC2)c1`, the EC50 was > 25 µM.
As to `COc1ccccc1N1CCN(C(=O)CSCc2c(C)noc2C)CC1`, the EC50 was > 25 µM.
For the compound `Cc1ccccc1N1CCN(C(=O)/C=C/c2ccccc2)CC1`, the EC50 was > 25 µM.
Regarding `Cc1ccccc1N1CCN(C(=O)NCSCc2c(C)noc2C)CC1`, the EC50 is > 25 µM.
For `Cc1ccccc1N1CCC(OC(=O)NCSCc2c(C)noc2C)CC1`, the EC50 was > 25 µM.
As for `Cc1ccc(Cl)cc1N1CCN(C(=O)[C@H]2C[C@H]2c2ccc(F)cc2)CC1`, the EC50 worked out at 1.7 µM.
On to `Cc1ccc(Cl)cc1N1CCN(C(=O)[C@@H]2C[C@@H]2c2ccc(F)cc2)CC1`, for which the EC50 was 15.2 µM.
`Cc1ccc(Cl)cc1N1CCN(C(=O)C2CC2c2ccc(F)cc2)CC1` (racemic): the EC50 was found to be 2.7 µM.
Regarding `Cc1ccccc1N1CCN(C(=O)[C@H]2C[C@@H]2c2ccccc2)CC1` (relative stereo), the EC50 is > 25 µM.

One may read the EC50 as the concentration that produces a half-maximal response.
